The test system of one assay is α4β2. As to conditions: read-out: Antagonist Activity IC50 α4β2; cited from earlier work.
In assay [1] the test system is nAChR. It counts as in vivo. The note with it: mouse, s.c., 30 min.
Assay [2] deals with nAChR. The assay is classed as in vivo. As to conditions: mouse, s.c.
In assay [3] the test system is nAChR. The assay can be described thus: Antagonism of nicotine-induced antinociception, hot-plate test. As to conditions: mouse. The assay is classed as in vivo. For orientation: Hot-plate and tail-flick tests time the reaction to a heat stimulus.
The test system of assay [4] is nAChR. It counts as in vivo. The note with it: mouse, s.c., tested 5 min after injection; (confidence limits).
For assay [5], the system named is nAChR. It counts as in vivo. As to conditions: mouse, s.c., tested 5 min after injection.
In a further assay the target is α3β4-nAChR (Rattus norvegicus, UniProt P04757+P12392). It counts as cell-based. The note with it: 100 µM compound, rat α3β4 in Xenopus oocytes.
Chain of α3β4-nAChR (P04757 26-499): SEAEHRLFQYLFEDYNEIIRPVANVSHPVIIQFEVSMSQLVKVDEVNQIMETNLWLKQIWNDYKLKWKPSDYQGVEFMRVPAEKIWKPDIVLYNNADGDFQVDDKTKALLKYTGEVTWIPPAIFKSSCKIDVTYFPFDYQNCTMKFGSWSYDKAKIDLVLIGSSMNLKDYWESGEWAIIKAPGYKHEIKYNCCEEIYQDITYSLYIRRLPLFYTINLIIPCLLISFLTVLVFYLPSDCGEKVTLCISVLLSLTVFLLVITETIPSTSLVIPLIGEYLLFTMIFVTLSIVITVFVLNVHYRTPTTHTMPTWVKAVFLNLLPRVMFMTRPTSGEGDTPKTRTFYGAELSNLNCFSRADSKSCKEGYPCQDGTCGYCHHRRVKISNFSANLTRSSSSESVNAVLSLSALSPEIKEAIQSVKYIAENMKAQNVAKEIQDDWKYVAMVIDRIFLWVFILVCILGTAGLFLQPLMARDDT
Chain of α3β4-nAChR (P12392 21-495): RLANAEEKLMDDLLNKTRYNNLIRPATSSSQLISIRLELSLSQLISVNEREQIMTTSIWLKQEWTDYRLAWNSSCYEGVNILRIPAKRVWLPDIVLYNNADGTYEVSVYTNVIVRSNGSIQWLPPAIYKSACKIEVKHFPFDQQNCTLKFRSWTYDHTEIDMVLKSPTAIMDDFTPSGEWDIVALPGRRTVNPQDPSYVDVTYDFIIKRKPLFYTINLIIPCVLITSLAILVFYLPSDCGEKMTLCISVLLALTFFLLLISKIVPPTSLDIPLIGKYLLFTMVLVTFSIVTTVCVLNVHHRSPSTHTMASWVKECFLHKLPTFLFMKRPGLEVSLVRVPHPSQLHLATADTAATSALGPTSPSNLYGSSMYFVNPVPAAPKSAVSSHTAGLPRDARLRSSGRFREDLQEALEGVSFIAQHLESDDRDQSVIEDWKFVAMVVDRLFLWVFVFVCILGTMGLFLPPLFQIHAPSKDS
The subject of another assay is human α4β2-nAChRs. The note with it: competitive antagonist of human α4β2-nAChRs; cited from earlier work.
Assay [6] has as its system discriminative stimulus effects of nicotine. As to conditions: rodents; cited from earlier work.
Assay [7] deals with nicotine's ability to facilitate ICSS. The note with it: rodents; cited from earlier work.
The next assay relates to CPP produced by nicotine. As to conditions: rodents; cited from earlier work.
The subject of assay [8] is nicotine self-administration. The note with it: rodents; cited from earlier work.
In assay [9] the target is T1, α4β2-nAChR (Rattus norvegicus, UniProt P09483+P12390). The assay is classed as cell-based.
Target sequence in this assay (P09483 31-630): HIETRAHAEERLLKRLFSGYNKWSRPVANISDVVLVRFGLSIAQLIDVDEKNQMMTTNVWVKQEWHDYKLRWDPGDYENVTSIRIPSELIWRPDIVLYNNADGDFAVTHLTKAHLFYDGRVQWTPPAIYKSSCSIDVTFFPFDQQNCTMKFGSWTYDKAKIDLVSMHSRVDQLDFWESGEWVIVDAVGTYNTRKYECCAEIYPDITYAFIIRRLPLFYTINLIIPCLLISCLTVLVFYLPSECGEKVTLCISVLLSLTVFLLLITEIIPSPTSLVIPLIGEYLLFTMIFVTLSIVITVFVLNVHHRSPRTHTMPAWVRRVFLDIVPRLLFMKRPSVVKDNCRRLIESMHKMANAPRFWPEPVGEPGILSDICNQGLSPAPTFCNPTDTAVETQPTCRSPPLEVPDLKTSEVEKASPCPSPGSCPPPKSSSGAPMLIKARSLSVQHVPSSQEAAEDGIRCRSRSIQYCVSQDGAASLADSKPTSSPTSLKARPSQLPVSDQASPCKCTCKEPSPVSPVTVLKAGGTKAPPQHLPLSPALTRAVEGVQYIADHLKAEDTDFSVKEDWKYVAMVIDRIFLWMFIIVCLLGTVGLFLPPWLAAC
Target sequence in this assay (P12390 25-500): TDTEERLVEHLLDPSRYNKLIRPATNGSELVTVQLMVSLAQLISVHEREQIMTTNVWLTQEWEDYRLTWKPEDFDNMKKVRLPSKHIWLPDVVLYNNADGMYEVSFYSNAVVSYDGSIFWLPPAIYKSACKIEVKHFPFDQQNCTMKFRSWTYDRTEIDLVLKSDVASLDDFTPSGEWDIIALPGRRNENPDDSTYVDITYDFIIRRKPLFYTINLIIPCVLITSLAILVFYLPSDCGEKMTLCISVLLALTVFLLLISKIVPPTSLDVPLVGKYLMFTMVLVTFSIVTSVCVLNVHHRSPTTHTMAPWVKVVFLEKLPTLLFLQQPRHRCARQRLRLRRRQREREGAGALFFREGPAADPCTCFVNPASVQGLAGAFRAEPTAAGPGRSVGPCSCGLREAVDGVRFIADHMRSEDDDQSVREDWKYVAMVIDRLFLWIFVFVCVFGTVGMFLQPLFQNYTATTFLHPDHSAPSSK
Assay [10] concerns the target T1, α4β2-nAChR. The assay is classed as binding. As to conditions: Ki ratio.
Target sequence in this assay (P12390 25-500): as above
Target sequence in this assay (P09483 31-630): as the sequence (P09483 31-630) above

Each structure is given as a SMILES string. Some results are limits rather than exact numbers.

On to `c1cnc2cc3c(cc2n1)[C@@H]1CNC[C@H]3C1` [varenicline], for which the concentration for half-maximal inhibition (IC50) with α4β2 was 0.2 ± 0.03 µM.
Take `CS(=O)(=O)c1ccc(-c2cc(C3CC4CCC3N4)cnc2F)cc1` (stereo not drawn) [Compound 5d, 2'-Fluoro-3'-(4-methanesulfonylphenyl)deschloroepibatidine]: the “ED50 Hypothermia” value in the assay on nAChR [1] is “no activity”. Further, in the assay with nAChR [2], the “ED50 Spontaneous Activity” value is on record as “no activity”. In the assay with nAChR [3], the “AD50 Hot-Plate” value is recorded as “antagonists in the hot-plate test”.
In the case of `O=[N+]([O-])c1ccc(-c2cc(C3CC4CCC3N4)cnc2F)cc1` (stereo not drawn) [Compound 5a, 2'-fluoro-3'-(4-nitrophenyl)deschloroepibatidine], the “ED50 Tail-Flick” value in the assay on nAChR [4] was “no functional activity”. The “ED50 Hot-Plate” value in the assay with nAChR [5] is given as “no functional activity”. Moreover, the “Agonist Activity (% of max ACh at 100 µM of Compd) α3β4” value at α3β4-nAChR is “low level of agonist activity”. In addition, the “potency higher than that of dihydro-β-erythroidine (6)” value with human α4β2-nAChRs is 17 fold. Also, the “effect on discriminative stimulus effects of nicotine” value in assay [6] is recorded as “attenuated”. Besides, the “effect on nicotine's ability to facilitate ICSS” value in assay [7] is reported as “reduced”. The “effect on CPP produced by nicotine” value in the assay on CPP produced by nicotine is “blocked”. Besides, in assay [8], the “effect on i.v. nicotine self-administration” value is given as “dose-dependently blocked”.
For `Fc1ncc(C2CC3CCC2N3)cc1-c1ccc(C(F)(F)F)cc1` (stereo not drawn) [Compound 5b, 2'-Fluoro-3'-(4'-trifluoromethylphenyl)deschloroepibatidine], in the assay with nAChR [1], the “ED50 Hypothermia” value was “no activity”. For the same molecule, the “ED50 Spontaneous Activity” value in the assay on nAChR [2] was “no activity”. Moreover, the “AD50 Hot-Plate” value in the assay with nAChR [3] is “antagonists in the hot-plate test”. Besides, on α4β2-nAChR [9] (electrophysiology, IC50 ratio), the “selectivity for α4β2- over α3β4-nAChR (antagonist potency)” value is on record as “no selectivity” and the “selectivity for α4β2- over α7-nAChR (antagonist potency)” value is recorded as “no selectivity”. In addition, at α3β4-nAChR, the “Agonist Activity (% of max ACh at 100 µM of Compd) α3β4” value was “lacked agonist activity”.
Regarding `O=S(=O)(c1ccc(-c2cc(C3CC4CCC3N4)cnc2F)cc1)C(F)(F)F` (stereo not drawn) [Compound 5f, 2'-Fluoro-3'-(4-trifluoromethanesulfonylphenyl)deschloroepibatidine], in the assay on nAChR [2], the “ED50 Spontaneous Activity” value is recorded as “only active in the spontaneous activity test”. Further, the “Agonist Activity (% of max ACh at 100 µM of Compd) α3β4” value at α3β4-nAChR was “low level of agonist activity”.
`N#Cc1ccc(-c2cc(C3CC4CCC3N4)cnc2F)cc1` (stereo not drawn) [Compound 5c, 2'-Fluoro-3'-(4-cyanophenyl)deschloroepibatidine]: the “ED50 Hypothermia” value in the assay on nAChR [1] is given as “no activity”. The “ED50 Spontaneous Activity” value in the assay with nAChR [2] is “no activity”. Moreover, the “Agonist Activity (% of max ACh at 100 µM of Compd) α3β4” value at α3β4-nAChR is listed as “low level of agonist activity”.
On to `NC(=O)c1ccc(-c2cc(C3CC4CCC3N4)cnc2F)cc1` (stereo not drawn) [Compound 5g, 2'-Fluoro-3'-(4-carbamoylphenyl)deschloroepibatidine], for which the “selectivity for α4β2 over α7 in radioligand binding assays” value at α4β2-nAChR [10] was > 15,000 fold. Further, in the assay on nAChR [1], the “ED50 Hypothermia” value was “only active in the hypothermia and spontaneous activity tests”. Further, in the assay on nAChR [2], the “ED50 Spontaneous Activity” value was “only active in the hypothermia and spontaneous activity tests”. The “Agonist Activity (% of max ACh at 100 µM of Compd) α4β2” value on α4β2-nAChR [9] (100 µM compound, rat α4β2 in Xenopus oocytes) is on record as “low level of agonist activity”. Also, the “Agonist Activity (% of max ACh at 100 µM of Compd) α3β4” value on α3β4-nAChR is on record as “low level of agonist activity”.
For the molecule `NS(=O)(=O)c1ccc(-c2cc(C3CC4CCC3N4)cnc2F)cc1` (stereo not drawn) [Compound 5e, 2'-Fluoro-3'-(4-aminosulfonylphenyl)deschloroepibatidine], the “ED50 Hypothermia” value with nAChR [1] is reported as “no activity”. For the same molecule, in the assay on nAChR [2], the “ED50 Spontaneous Activity” value is recorded as “no activity”.

As a reminder, the IC50 is the concentration that inhibits the measured activity by half.

Values taken from article PMC3431023 (Journal of medicinal chemistry, 2012).
